Here are results for 4 compounds from patent US20100285145A1, “GPR 119 MODULATORS” (PFIZER INC, priority 2009, published 2010).

A word on the EC50: it is the concentration needed to bring the measured effect to its halfway point. As usually defined, the Ki is a dissociation constant, usually derived from enzyme kinetics or from competition with a known ligand.

Values joined by “and” are separate entries in the source; they are usually repeats but may differ in a detail not shown here. Identical values can stand only once.

In experiment [1] the target is T1, human GPR119 (Homo sapiens, UniProt Q8TDV5).
T1 sequence (Q8TDV5 1-335): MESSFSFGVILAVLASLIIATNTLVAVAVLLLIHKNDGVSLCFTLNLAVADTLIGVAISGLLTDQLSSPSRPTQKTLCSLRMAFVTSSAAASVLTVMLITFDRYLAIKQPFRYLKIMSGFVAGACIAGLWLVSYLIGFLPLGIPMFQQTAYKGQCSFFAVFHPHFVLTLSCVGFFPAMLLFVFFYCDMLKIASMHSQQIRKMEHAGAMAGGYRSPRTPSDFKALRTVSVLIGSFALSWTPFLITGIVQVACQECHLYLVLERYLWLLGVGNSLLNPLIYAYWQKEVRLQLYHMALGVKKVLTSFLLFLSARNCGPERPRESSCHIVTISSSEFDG
Nature of the experiment: cAMP HTRF functional assay (hGPR119 HEK-CRE beta-lactamase cells). In kind it is cell-based. On the set-up: host or cells: HEK293-CRE beta-lactamase. To be noted: for Emax: read-out: Intrinsic Activity (Human cAMP). The protocol: GPR119 agonist activity was also determined with a cell-based assay utilizing an HTRF (Homogeneous Time-Resolved Fluorescence) cAMP detection kit (cAMP dynamic 2 Assay Kit; Cis Bio cat #62AM4PEC) that measures cAMP levels in the cell. The method is a competitive immunoassay between native cAMP produced by the cells and the cAMP labeled with the dye d2. The tracer binding is visualized by a Mab anti-cAMP labeled with Cryptate. The specific signal (i.e. energy transfer) is inversely proportional to the concentration of cAMP in either standard or sample.
Specifically, hGPR119 HEK-CRE beta-lactamase cells (Invitrogen 2.5×10^7/mL; the same cell line used in the beta-lactamase assay described above) are removed from cryopreservation and diluted in growth medium (Dulbecco's modified Eagle medium high glucose (DMEM; Gibco Cat # 11995-065), 1% charcoal dextran treated fetal bovine serum (CD serum; HyClone Cat # SH30068.03), 1×MEM Nonessential amino acids (Gibco Cat # 15630-080) and 25 mM HEPES pH 7.0 (Gibco Cat # 15630-080)). The cell concentration was adjusted to 1.5×10^5 cells/mL and 30 mLs of this suspension was added to a T-175 flask and incubated at 37 degrees Celsius in a humidified environment in 5% carbon dioxide. After 16 hours (overnight), the cells were removed from the T-175 flask (by rapping the side of the flask), centrifuged at 800×g and then re-suspended in assay medium (1×HBSS+CaCl2+MgCl2 (Gibco Cat # 14025-092) and 25 mM HEPES pH 7.0 (Gibco Cat # 15630-080)). The cell concentration was adjusted to 6.25×10^5 cells/mL with assay medium and 8 μl of this cell suspension (5000 cells) was added to each well of a white Greiner 384-well, low-volume assay plate (VWR cat #82051-458).
Varying concentrations of each compound to be tested were diluted in assay buffer containing 3-isobutyl-1-methylxanthin (IBMX; Sigma cat #15879) and added to the assay plate wells in a volume of 2 microL (final IBMX concentration was 400 microM and final DMSO concentration was 0.58%). Following 30 minutes incubation at room temperature, 5 microL of labeled d2 cAMP and 5 microL of anti-cAMP antibody (both diluted 1:20 in cell lysis buffer; as described in the manufacturers assay protocol) were added to each well of the assay plate. The plates were then incubated at room temperature and after 60 minutes, changes in the HTRF signal were read with an Envision 2104 multilabel plate reader using excitation of 330 nm and emissions of 615 and 665 nm. Raw data were converted to nM cAMP by interpolation from a cAMP standard curve (as described in the manufacturer's assay protocol) and EC50 determinations were made from an agonist-response curves analyzed with a curve fitting program using a 4-parameter logistic dose response equation.
For orientation: TR-FRET usually uses a lanthanide donor and a delayed reading to cut background.

Experiment [2] concerns the target T1, human GPR119. Nature of the experiment: GPR119 radioligand binding assay ([3H]-Compound A or B, membranes of HEK 293FT cells expressing hGPR119). More on the design: host or cells: HEK293-CRE beta-lactamase. To be noted: calculated from IC50 with Cheng-Prusoff; each line a separate determination. The protocol:
HEK 293FT cells (Invitrogen, Carlsbad, Calif.) were grown in a shake flask in 293Freestyle medium (Invitrogen) supplemented with 50 microg/mL neomycin and 10 mM HEPES (37C, 8% carbon dioxide, shaking). The cells were centrifuged gently (approximately 500×g, 10 minutes) and the pellet resuspended in a mixture of Dulbecco's PBS (minus Mg++/−Ca++) supplemented with 18% fetal bovine serum (Sigma Aldrich) and P1 virus such that the multiplicity of infection (MOI) was 10 and the final cell density was 1.3×10^6/mL (total volume 2.5 liters). The cells were transferred to a 5 liter Wave Bioreactor Wavebag (Wave Technologies, Mass.) and incubated for 4 hours at 27 degrees Celsius (17 rocks/min, 7 degrees platform angle); at the end of the incubation period, an equal volume (2.5 liters) of 293Freestyle medium supplemented with 30 mM sodium butyrate (Sigma Aldrich) was added (final concentration=15 mM), and the cells were grown for 20 hours (37 degrees Celsius, 8% CO2 [0.2 liters/min}, 25 rocks/minute, 7 degrees platform angle). Cells were harvested via centrifugation (3,000×g, 10 minutes), washed once on DPBS (minus Ca++/Mg++), resuspended in 0.25M sucrose, 25 mM HEPES, 0.5 mM EDTA, pH 7.4 and frozen at −80 degrees Celsius.
The frozen cells were thawed on ice and centrifuged at 700×g (1400 rpm) for 10 minutes at 4 degrees Celsius. The cell pellet was resuspended in 20 mL phosphate-buffered saline, and centrifuged at 1400 rpm for 10 minutes. The cell pellet was then resuspended in homogenization buffer (10 mM HEPES (Gibco #15630), pH 7.5, 1 mM EDTA (BioSolutions, #BIO260-15), 1 mM EGTA (Sigma, #E-4378), 0.01 mg/mL benzamidine (Sigma #B 6506), 0.01 mg/mL bacitracin (Sigma #B 0125), 0.005 mg/mL leupeptin (Sigma #L 8511), 0.005 mg/mL aprotinin (Sigma #A 1153)) and incubated on ice for 10 minutes. Cells were then lysed with 15 gentle strokes of a tight-fitting glass Dounce homogenizer. The homogenate was centrifuged at 1000×g (2200 rpm) for 10 minutes at 4 degrees Celsius. The supernatant was transferred into fresh centrifuge tubes on ice. The cell pellet was resuspended in homogenization buffer, and centrifuged again at 1000×g (2200 rpm) for 10 minutes at 4 degrees Celsius after which the supernatant was removed and the pellet resuspended in homogenization buffer. This process was repeated a third time, after which the supernatants were combined, Benzonase (Novagen # 71206) and MgCl2 (Fluka #63020) were added to final concentrations of 1 U/mL and 6 mM, respectively, and incubated on ice for one hour. The solution was then centrifuged at 25,000×g (15000 rpm) for 20 minutes at 4 degrees Celsius, the supernatant was discarded, and the pellet was resuspended in fresh homogenization buffer (minus Benzonase and MgCl2). After repeating the 25,000×g centrifugation step, the final membrane pellet was resuspended in homogenization buffer and frozen at −80 degrees Celsius. The protein concentration was determined using the Pierce BCA protein assay kit (Pierce reagents A #23223 and B #23224).
Test compounds were serially diluted in 100% DMSO (J. T. Baker #922401). 2 microL of each dilution was added to appropriate wells of a 96-well plate (each concentration in triplicate). Unlabeled Compound A (or Compound B), at a final concentration of 10 microM, was used to determine non-specific binding. [^3H]-Compound A (or [^3H]-Compound B) was diluted in binding buffer (50 mM Tris-HCl, pH 7.5, (Sigma #T7443), 10 mM MgCl2 (Fluka 63020), 1 mM EDTA (BioSolutions #BIO260-15), 0.15% bovine serum albumin (Sigma #A7511), 0.01 mg/mL benzamidine (Sigma #B 6506), 0.01 mg/mL bacitracin (Sigma #B 0125), 0.005 mg/mL leupeptin (Sigma #L 8511), 0.005 mg/mL aprotinin (Sigma #A 1153)) to a concentration of 60 nM, and 100 microL added to all wells of 96-well plate (Nalge Nunc # 267245). […]

Experiment [3] addresses T1, human GPR119. The experiment in a line: β-Arrestin PathHunter assay (U2OS hGPR119 β-arrestin cells). The note with it: for Emax: U2OS, read-out: Intrinsic Activity (Human B-arrestin). The experiment is classed as cell-based. The method, then:
GPR119 agonist activity was also determined with a cell-based assay utilizing DiscoverX PathHunter β-arrestin cell assay technology and their U2OS hGPR119 β-arrestin cell line (DiscoverX Cat # 93-0356C3). In this assay, agonist activation is determined by measuring agonist-induced interaction of β-arrestin with activated GPR119. A small, 42 amino acid enzyme fragment, called ProLink was appended to the C-terminus of GPR119. Arrestin was fused to the larger enzyme fragment, termed EA (Enzyme Acceptor). Activation of GPR119 stimulates binding of arrestin and forces the complementation of the two enzyme fragments, resulting in formation of a functional β-galactosidase enzyme capable of hydrolyzing substrate and generating a chemiluminescent signal.
Specifically, U2OS hGPR119 β-arrestin cells (DiscoverX 1×10^7/mL) are removed from cryopreservation and diluted in growth medium (Minimum essential medium (MEM; Gibco Cat # 11095-080), 10% heat inactivated fetal bovine serum (HIFBS; Sigma Cat # F4135-100), […] sodium pyruvate (Sigma Cat # S8636), 500 microg/mL G418 (Sigma Cat # G8168) and 250 microg/mL Hygromycin B (Invitrogen Cat # 10687-010). The cell concentration was adjusted to 1.66×10^5 cells/mL and 30 mLs of this suspension was added to a T-175 flask and incubated at 37 degrees Celsius in a humidified environment in 5% carbon dioxide. After 24 hours, the cells were removed from the T-175 flask with enzyme-free cell dissociation buffer (Gibco cat #13151-014), centrifuged at 800×g and then re-suspended in plating medium (Opti-MEM I (Invitrogen/BRL Cat # 31985-070) and 2% charcoal dextran treated fetal bovine serum (CD serum; HyClone Cat # SH30068.03).
The cell concentration was adjusted to 2.5×10^5 cells/mL with plating medium and 20 microliters of this cell suspension (5000 cells) was added to each well of a white Greiner 384-well low volume assay plate (VWR cat #82051-458) and the plates were incubated at 37 degrees Celsius in a humidified environment in 5% carbon dioxide.
After 16 hours (overnight) the assay plates were removed from the incubator and varying concentrations of each compound to be tested (diluted in assay buffer (1×HBSS+CaCl2+MgCl2 (Gibco Cat # 14025-092), 20 mM HEPES pH 7.0 (Gibco Cat # 15630-080) and 0.1% BSA (Sigma Cat # A9576)) were added to the assay plate wells in a volume of 5 microliters (final DMSO concentration was 0.5%). After a 90 minute incubation at 37 degrees Celsius in a humidified environment in 5% carbon dioxide, 12 microliters of Galacton Star β-galactosidase substrate (PathHunter Detection Kit (DiscoveRx Cat # 93-0001); prepared as described in the manufacturers assay protocol) was added to each well of the assay plate. The plates were incubated at room temperature and after 60 minutes, changes in the luminescence were read with an Envision 2104 multilabel plate reader at 0.1 seconds per well. EC50 determinations were made from an agonist-response curves analyzed with a curve fitting program using a 4-parameter logistic dose response equation.

Setting [4] is: HTRF cAMP, 30 min, 400 microM IBMX, each line a separate determination.
Where [5] appears, read: percent of maximal activity relative to standard GPR119 agonist at 10 micromolar.
Where [6] appears, read: marked **: curve was extrapolated to 100%.

Consider `Cc1c(OC2CCN(C(=O)OC3(C)CC3)CC2F)ncnc1N1CCc2cc(C(N)=O)ccc21` (racemic) [Example 20, 1-Methylcyclopropyl 4-{[6-(5-carbamoyl-2,3-dihydro-1H-indol-1-yl)-5-methylpyrimidin-4-yl]oxy}-3-fluoropiperidine-1-carboxylate (racemic)], for which, on human GPR119 [1] (setting [4]), the EC50 is 493 nM and 765 nM and 1050 nM. Further, on human GPR119 [1] (setting [5]), the “Intrinsic Activity (Human cAMP)” value was 91.6% and 98%; the Emax is 81.5%. Besides, at human GPR119 [2], the Ki is 1710 nM.
Turning to `Cc1c(O[C@@H]2CCN(C(=O)OC3(C)CC3)C[C@@H]2F)ncnc1N1CCc2ncccc21` [Example 18, 1-Methylcyclopropyl (3S,4R)-4-{[6-(2,3-dihydro-1H-pyrrolo[3,2-b]pyridin-1-yl)-5-methylpyrimidin-4-yl]oxy}-3-fluoropiperidine-1-carboxylate], the EC50 on human GPR119 [3] (U2OS hGPR119 β-arrestin cells, 90 min, each line a separate determination, read-out: Human B-arrestin Functional EC50) is 2.57 nM and 19 nM and 4.94 nM and 20.6 nM. Also, at human GPR119 [3] (setting [5]), the Emax was 75.8%; the “Intrinsic Activity (Human B-arrestin)” value is 73.7% and 81% and 78.9%. The EC50 on human GPR119 [1] (setting [4]) is 18.8 nM and 18.4 nM and 15.9 nM and 12.7 nM and 14.6 nM. On human GPR119 [1] (setting [5]), the “Intrinsic Activity (Human cAMP)” value was 71.2% and 49.2% and 54.5% and 61.7% and 57.7%.
With `Cc1c(O[C@@H]2[C@@H]3COC[C@H]2CN(C(=O)OC2(C)CC2)C3)ncnc1N1CCc2ncccc21` [Example 28, 1-Methylcyclopropyl (9-syn)-9-{[6-(2,3-dihydro-1H-pyrrolo[3,2-b]pyridin-1-yl)-5-methylpyrimidin-4-yl]oxy}-3-oxa-7-azabicyclo[3.3.1]nonane-7-carboxylate], the Emax amounted to 32.1% at human GPR119 [3] (setting [5]) and 41.9% on human GPR119 [1] (setting [5]). For the same compound, the “Intrinsic Activity (Human cAMP)” value at human GPR119 [1] (setting [5]) is 37% and 36%.
`Cc1c(O[C@@H]2CCN(C(=O)OC3(C)CC3)C[C@@H]2F)ncnc1N1CCc2nnccc21` [Example 31, 1-Methylcyclopropyl (3S,4R)-4-{[6-(6,7-dihydro-5H-pyrrolo[3,2-c]pyridazin-5-yl)-5-methylpyrimidin-4-yl]oxy}-3-fluoropiperidine-1-carboxylate]: on human GPR119 [1] (curve was extrapolated to 100% to calculate an EC50), the EC50 was 4820 nM and 5890 nM and 6100 nM. At human GPR119 [1] (setting [6]), the “Intrinsic Activity (Human cAMP)” value is 100** % and the Emax was 100%. The Ki on human GPR119 [2] was 618 nM.
